Tests used:
[1] = In vitro dicamba photo-release from photo-labile dicamba esters, tetrahydrofuran solvent (Example 26); format: physicochemical; conditions: THF, 0.1 mM ester
Outline: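 Esters at 0.1 mM in THF, sealed in quartz tubes and exposed to simulated sunlight 14 h per day at 35 °C. Dicamba released was measured over the photolysis, with an unilluminated sample of the starting solution serving as dark control.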

velvetleaf [2] = assay: Greenhouse post-emergent control of velvetleaf by emulsifiable concentrates (Example 29); format: in vivo; conditions: three weeks after treatment
Outline: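 Greenhouse velvetleaf 10–15 cm tall sprayed post-emergence with photo-labile ester emulsifiable concentrates at 140, 280, 420 and 560 g dicamba equivalent/ha, alongside dicamba diglycolamine salt at the same rates and untreated plants. Percent control scored three weeks after treatment.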

[3] = test system: glyphosate-tolerant, dicamba-sensitive soy plants; assay: Humidome volatility injury to dicamba-sensitive plants (Example 31); conditions: assessed after three weeks in greenhouse
Text: In this case, the diglycolamine salt of dicamba (CLARITY®) was used for comparison.
Dicamba photo-labile ester formulations from Example 28 were mixed with a commercial glyphosate formulation (ROUNDUP POWERMAX®) and diluted to provide a solution with a 0.5% dicamba equivalent concentrate of the ester (or dicamba diglycolamine salt) and 1.5% concentrate of glyphosate. The mixtures were sprayed at a 10 gallon per acre (93.5 liters per hectare) rate on soil in a plastic container (“humidome”) with a transparent lid. One soil container was sprayed with water as a control. Four glyphosate-tolerant, dicamba-sensitive soy plants between V2 and V3 stage were immediately placed on the sprayed soil and the domes attached to the trays with binder clips. The soy plants were in pots placed directly on the soil but with aluminum foil wrapped around the bottom to prevent uptake of dicamba or dicamba esters through the roots.
The closed containers were held for 24 hours in a growth chamber which was maintained at 35° C. with 40% relative humidity. The plants were then removed and grown in a greenhouse for three weeks. At this time plant injury and growth stage were assessed compared to the control treated with water only.

[4] = In vitro photo-release and hydrolytic release of dicamba in an aqueous medium (Example 35); format: physicochemical; conditions: 0.01 mM ester, 35° C.
hemp sesbania = assay: Field testing of emulsifiable concentrates, post-emergent control (Example 38); format: in vivo
morning glory = assay: as above; format: in vivo
velvetleaf [5] = assay: as above; format: in vivo
Euphorbia species = assay: Field testing for post-emergent activity in the Southern Hemisphere (Example 39); format: in vivo; conditions: 9 as suspension concentrate, other esters as emulsifiable concentrates
Outline: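 Southern Hemisphere field trial, post-emergence application on Euphorbia weeds. Esters applied as emulsifiable concentrates in aromatic solvent with emulsifiers, one ester as a suspension concentrate. Dicamba diglycolamine salt served as comparator.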

broadleaf weeds = assay: Control of broadleaf weeds by ester concentrates (statements of the description); format: in vivo
[6] = 280 and 420 g dicamba acid equivalent per hectare
[7] = 280 g dicamba acid equivalent per hectare, 11 or 21 days after treatment
[8] = 420 g dicamba acid equivalent per hectare, 11 or 21 days after treatment

COc1c(Cl)ccc(Cl)c1C(=O)OCc1ccccc1[N+](=O)[O-] [Ester 1a, 2-Nitrobenzyl Ester of Dicamba]
Dark Control % dicamba ([1]; initial solution kept away from the light source, analyzed at conclusion of study): 1% | Conversion to dicamba, 1 day ([1]; simulated sunlight 14 hours per day, 35° C., 1 day): 22% | Conversion to dicamba, 2 days ([1]; simulated sunlight 14 hours per day, 35° C., 2 days): 33% | Conversion to dicamba, 3 days ([1]; simulated sunlight 14 hours per day, 35° C., 3 days): 47% | Conversion to dicamba, 5 days ([1]; simulated sunlight 14 hours per day, 35° C., 5 days): 66% | Conversion to dicamba, 7 days ([1]; simulated sunlight 14 hours per day, 35° C., 7 days): 76% | % Control of velvetleaf, 140 g/ha (velvetleaf [2]; 140 g dicamba equivalent per hectare): 46% | % Control of velvetleaf, 280 g/ha (velvetleaf [2]; 280 g dicamba equivalent per hectare): 60% | % Control of velvetleaf, 420 g/ha (velvetleaf [2]; 420 g dicamba equivalent per hectare): 75% | % Control of velvetleaf, 560 g/ha (velvetleaf [2]; 560 g dicamba equivalent per hectare): 73% | % Injury ([3]; soy plants 24 hours in closed humidome over sprayed soil (0.5% dicamba equivalent + 1.5% glyphosate), 35° C.): 8% | Growth Stage ([3]; soy plants 24 hours in closed humidome over sprayed soil): 8 | Conversion to Dicamba, Dark, Day 0 ([4]; amber (dark) bottle, Day 0): 7% | Conversion to Dicamba, Dark, Day 1 ([4]; amber (dark) bottle, Day 1): 8% | Conversion to Dicamba, Dark, Day 2 ([4]; amber (dark) bottle, Day 2): 8% | Conversion to Dicamba, Dark, Day 3 ([4]; amber (dark) bottle, Day 3): 8% | Conversion to Dicamba, Dark, Day 4 ([4]; amber (dark) bottle, Day 4): 7% | Conversion to Dicamba, Dark, Day 7 ([4]; amber (dark) bottle, Day 7): 8% | Conversion to dicamba, Dark, Day 10 ([4]; amber (dark) bottle, Day 10): 8% | Conversion to Dicamba, Dark, Day 14 ([4]; amber (dark) bottle, Day 14): 8% | Conversion to Dicamba, Dark, Day 21 ([4]; amber (dark) bottle, Day 21): 8% | Conversion to Dicamba, Dark, Day 28 ([4]; amber (dark) bottle, Day 28): 8% | Conversion to Dicamba, Light, Day 0 ([4]; quartz tube, 14-hour day, Day 0): 7% | Conversion to Dicamba, Light, Day 1 ([4]; quartz tube, 14-hour day, Day 1): 13% | Conversion to Dicamba, Light, Day 2 ([4]; quartz tube, 14-hour day, Day 2): 16% | Conversion to Dicamba, Light, Day 3 ([4]; quartz tube, 14-hour day, Day 3): 18% | Conversion to Dicamba, Light, Day 4 ([4]; quartz tube, 14-hour day, Day 4): 21% | Conversion to Dicamba, Light, Day 7 ([4]; quartz tube, 14-hour day, Day 7): 29% | Conversion to dicamba, Light, Day 10 ([4]; quartz tube, 14-hour day, Day 10): 37% | Conversion to Dicamba, Light, Day 14 ([4]; quartz tube, 14-hour day, Day 14): 54% | Conversion to Dicamba, Light, Day 21 ([4]; quartz tube, 14-hour day, Day 21): 75% | Conversion to Dicamba, Light, Day 28 ([4]; quartz tube, 14-hour day, Day 28): 107% | post-emergent control of hemp sesbania compared with the dicamba salt, in words (hemp sesbania; [6]): equivalent to the dicamba salt | % control, 280 g/ha, Hemp sesbania (hemp sesbania; [7]): 95% | % control, 420 g/ha, Hemp sesbania (hemp sesbania; [8]): 98% | post-emergent control of morning glory compared with the dicamba salt, in words (morning glory; [6]): equivalent to the dicamba salt | % control, 280 g/ha, Morning glory (morning glory; [7]): 100% | % control, 420 g/ha, Morning glory (morning glory; [8]): 98% | post-emergent control of velvetleaf compared with the dicamba salt, in words (velvetleaf [5]; [6]): equivalent to the dicamba salt | % control, 280 g/ha, Velvetleaf (velvetleaf [5]; [7]): 86% | % control, 420 g/ha, Velvetleaf (velvetleaf [5]; [8]): 92% | % control, 0.25 lb/ac (0.28 kg/hectare) (Euphorbia species; 0.25 lb dicamba a.e. per acre): 72% | % control, 0.50 lb/ac (0.56 kg/hectare) (Euphorbia species; 0.50 lb dicamba a.e. per acre): 78% | control of a number of broadleaf weeds in field testing, in words (broadleaf weeds; emulsifiable and suspension concentrates, Sesbania macrocarpa, morning glory, velvetleaf, Palmer amaranth, fat hen, sicklepod): proven effective | field efficacy for control of broadleaf weeds compared with the diglycolamine salt of dicamba, in words (broadleaf weeds; field tests of emulsifiable concentrates): slightly more effective than the diglycolamine salt of dicamba
